# According to publication PMC11124822, “Discovery and Anticancer Screening of Novel Oxindole-Based Derivative Bearing Pyridyl Group as Potent and Selective Dual FLT3/CDK2 Kinase Inhibitor” (Pharmaceuticals, 2024):
# Legend:
# UACC-257 = test: NCI-60 antiproliferative screen (SRB); type: cell-based, human; conditions: Homo sapiens; 10 µM single dose, 48 h; UACC-257 (Melanoma); read-out: Growth inhibition (%)
# OVCAR-5 = test: NCI-60 antiproliferative screen (SRB); type: cell-based, human; conditions: Homo sapiens; 10 µM single dose, 48 h; OVCAR-5 (Ovarian); read-out: Growth inhibition (%)
# NCI/ADR-RES = test: NCI-60 antiproliferative screen (SRB); type: cell-based, human; conditions: Homo sapiens; 10 µM single dose, 48 h; NCI/ADR-RES (Ovarian); read-out: Growth inhibition (%)
# UACC-62 = test: NCI-60 antiproliferative screen (SRB); type: cell-based, human; conditions: Homo sapiens; 10 µM single dose, 48 h; UACC-62 (Melanoma); read-out: Growth inhibition (%)
# CCRF-CEM = test: NCI-60 antiproliferative screen (SRB); type: cell-based, human; conditions: Homo sapiens; 10 µM single dose, 48 h; CCRF-CEM (Leukemia); read-out: Growth inhibition (%)
# BT-549 = test: NCI-60 antiproliferative screen (SRB); type: cell-based, human; conditions: Homo sapiens; 10 µM single dose, 48 h; BT-549 (Breast); read-out: Growth inhibition (%)
# M14 = test: NCI-60 antiproliferative screen (SRB); type: cell-based, human; conditions: Homo sapiens; 10 µM single dose, 48 h; M14 (Melanoma); read-out: Growth inhibition (%)
# 786-0 = test: NCI-60 antiproliferative screen (SRB); type: cell-based, human; conditions: Homo sapiens; 10 µM single dose, 48 h; 786-0 (Renal); read-out: Growth inhibition (%)
# NCI-H23 = test: NCI-60 antiproliferative screen (SRB); type: cell-based, human; conditions: Homo sapiens; 10 µM single dose, 48 h; NCI-H23 (NSCLC); read-out: Growth inhibition (%)
# OVCAR-8 = test: NCI-60 antiproliferative screen (SRB); type: cell-based, human; conditions: Homo sapiens; 10 µM single dose, 48 h; OVCAR-8 (Ovarian); read-out: Growth inhibition (%)
# NCI-H460 = test: NCI-60 antiproliferative screen (SRB); type: cell-based, human; conditions: Homo sapiens; 10 µM single dose, 48 h; NCI-H460 (NSCLC); read-out: Growth inhibition (%)
# MDA-MB-435 = test: NCI-60 antiproliferative screen (SRB); type: cell-based, human; conditions: Homo sapiens; 10 µM single dose, 48 h; MDA-MB-435 (Melanoma); read-out: Growth inhibition (%)
# NCI-H226 = test: NCI-60 antiproliferative screen (SRB); type: cell-based, human; conditions: Homo sapiens; 10 µM single dose, 48 h; NCI-H226 (NSCLC); read-out: Growth inhibition (%)
# SN12C = test: NCI-60 antiproliferative screen (SRB); type: cell-based, human; conditions: Homo sapiens; 10 µM single dose, 48 h; SN12C (Renal); read-out: Growth inhibition (%)
# NCI-H522 = test: NCI-60 antiproliferative screen (SRB); type: cell-based, human; conditions: Homo sapiens; 10 µM single dose, 48 h; NCI-H522 (NSCLC); read-out: Growth inhibition (%)
# DU-145 = test: NCI-60 antiproliferative screen (SRB); type: cell-based, human; conditions: Homo sapiens; 10 µM single dose, 48 h; DU-145 (Prostate); read-out: Growth inhibition (%)
# IGROV1 = test: NCI-60 antiproliferative screen (SRB); type: cell-based, human; conditions: Homo sapiens, IGROV-1; 10 µM single dose, 48 h; IGROV1 (Ovarian); read-out: Growth inhibition (%)
# [1] = test system: NCI-60 human cancer cell lines; test: NCI-60 screen, full panel summary; type: cell-based; conditions: 10 µM single dose; for Mean Growth Percent: all NCI-60 cell lines
# Experimental: In a comprehensive test, compounds were assayed at a single dose concentration (10^−5 M) in the full panel of NCI-60 cancer cell lines.
# HCT-15 = test: NCI-60 antiproliferative screen (SRB); type: cell-based, human; conditions: Homo sapiens; 10 µM single dose, 48 h; HCT-15 (Colon); read-out: Growth inhibition (%)
# SK-MEL-28 = test: NCI-60 antiproliferative screen (SRB); type: cell-based, human; conditions: Homo sapiens; 10 µM single dose, 48 h; SK-MEL-28 (Melanoma); read-out: Growth inhibition (%)
# SK-OV-3 = test: NCI-60 antiproliferative screen (SRB); type: cell-based, human; conditions: Homo sapiens; 10 µM single dose, 48 h; SK-OV-3 (Ovarian); read-out: Growth inhibition (%)
# EKVX = test: NCI-60 antiproliferative screen (SRB); type: cell-based, human; conditions: Homo sapiens; 10 µM single dose, 48 h; EKVX (NSCLC); read-out: Growth inhibition (%)
# SF-295 = test: NCI-60 antiproliferative screen (SRB); type: cell-based, human; conditions: Homo sapiens; 10 µM single dose, 48 h; SF-295 (CNS); read-out: Growth inhibition (%)
# ACHN = test: NCI-60 antiproliferative screen (SRB); type: cell-based, human; conditions: Homo sapiens; 10 µM single dose, 48 h; ACHN (Renal); read-out: Growth inhibition (%)
# CAKI-1 = test: NCI-60 antiproliferative screen (SRB); type: cell-based, human; conditions: Homo sapiens; 10 µM single dose, 48 h; CAKI-1 (Renal); read-out: Growth inhibition (%)
# SF-539 = test: NCI-60 antiproliferative screen (SRB); type: cell-based, human; conditions: Homo sapiens; 10 µM single dose, 48 h; SF-539 (CNS); read-out: Growth inhibition (%)
# OVCAR-4 = test: NCI-60 antiproliferative screen (SRB); conditions: Homo sapiens, OVCAR-4, 48 h, read-out: Growth inhibition (%)
# Experimental: Anticancer activity was tested against 60 cancer cell lines (NCI-60) after 48h treatments with a single dosage of 10 μM of compounds by using sulforhodamine B assay [39] on the traditional 96-well platform. […] The human cancer cell lines of the NCI-60 panel are grown in RPMI 1640 medium supplemented with 5% FBS (fetal bovine serum) and 2 mM L-glutamine. […] For further analysis of promising compounds, five dose screens were performed against the NCI-60 panel. Drug treatments are performed in 5 doses using 10-fold or ½ log dose dilutions.
# LOX IMVI = test: NCI-60 antiproliferative screen (SRB); type: cell-based, human; conditions: Homo sapiens; 10 µM single dose, 48 h; LOX IMVI (Melanoma); read-out: Growth inhibition (%)
# HS 578T = test: NCI-60 antiproliferative screen (SRB); type: cell-based, human; conditions: Homo sapiens; 10 µM single dose, 48 h; HS 578T (Breast); read-out: Growth inhibition (%)
Compound,inhibition at 10 µM (UACC-257) [%],inhibition at 10 µM (OVCAR-5) [%],inhibition at 10 µM (NCI/ADR-RES) [%],inhibition at 10 µM (UACC-62) [%],inhibition at 10 µM (CCRF-CEM) [%],inhibition at 10 µM (BT-549) [%],inhibition at 10 µM (M14) [%],inhibition at 10 µM (786-0) [%],inhibition at 10 µM (NCI-H23) [%],inhibition at 10 µM (OVCAR-8) [%],inhibition at 10 µM (NCI-H460) [%],inhibition at 10 µM (MDA-MB-435) [%],inhibition at 10 µM (NCI-H226) [%],inhibition at 10 µM (SN12C) [%],inhibition at 10 µM (NCI-H522) [%],inhibition at 10 µM (DU-145) [%],Positive Cytostatic Effect (cell lines with percent growth from 0 to 50 / total number of cell lines) [1],Positive Cytotoxic Effect (cell lines with percent growth of <0 / total number of cell lines) [1],Sensitive/Total Cell Lines [1],Mean Growth Percent [1],further results
"O=C1Nc2ccccc2C1=Cc1ccc(OCc2ccccn2)cc1 (mixture of isomers) [Compound 5e, (E/Z)-3-[4-(Pyridin-2-ylmethoxy]benzylidene) indolin-2-one]",12.6,5.53,46.7,40.4,57.7,41.2,8.3,18,21.4,29.7,15,10.1,40.8,47.7,24.6,20.3,11/56,0/56,11/56,33.37,inhibition at 10 µM (IGROV1): 36.8%; The Most Sensitive Cell Line [1]: HOP-92; inhibition at 10 µM (HCT-15): 45.9%; inhibition at 10 µM (SK-MEL-28): -0.76%; inhibition at 10 µM (SK-OV-3): 16.8%; inhibition at 10 µM (EKVX): 47.3%; inhibition at 10 µM (SF-295): 27%; inhibition at 10 µM (ACHN): 33.6%; inhibition at 10 µM (CAKI-1): 40.8%; inhibition at 10 µM (SF-539): 35.3%; inhibition at 10 µM (OVCAR-4): 30.8%
"O=C1Nc2cc(Cl)ccc2C1=Cc1ccc(OCc2ccccn2)cc1 (mixture of isomers) [Compound 5h, (E/Z)-6-Chloro-3-[4-(pyridin-2-ylmethoxy)benzylidene]indolin-2-one]",-2.1,15.6,39,49.6,53.7,33.8,20,18.7,47.4,13.6,56.7,23.9,48.6,24.9,31.6,39.6,11/56,0/56,11/56,30.77,inhibition at 10 µM (IGROV1): 26.2%; The Most Sensitive Cell Line [1]: OVCAR-4; inhibition at 10 µM (HCT-15): 45.5%; inhibition at 10 µM (SK-MEL-28): -8.02%; inhibition at 10 µM (SK-OV-3): 4.39%; inhibition at 10 µM (EKVX): 49.4%; inhibition at 10 µM (SF-295): 14.3%; inhibition at 10 µM (ACHN): 9.61%; inhibition at 10 µM (CAKI-1): 28.8%; inhibition at 10 µM (SF-539): 57.7%; inhibition at 10 µM (OVCAR-4): 75.8%
"O=C1Nc2ccc(Cl)cc2C1=Cc1ccc(OCc2cccnc2)cc1 (mixture of isomers) [Compound 5k, (E/Z)-5-Chloro-3-[4-(pyridin-3-ylmethoxy)benzylidene] indolin-2-one]",2.42,-34.5,26,23.3,36.4,14.5,12.2,1.47,16.7,23.4,14.3,29.3,11.8,9.17,19.8,0.75,5/56,0/56,5/56,14.49,inhibition at 10 µM (LOX IMVI): 10.1%; inhibition at 10 µM (HS 578T): 3.67%; inhibition at 10 µM (HCT-15): 46.5%; inhibition at 10 µM (SK-MEL-28): -20.5%; inhibition at 10 µM (SK-OV-3): 5.36%; inhibition at 10 µM (EKVX): 16.1%; inhibition at 10 µM (SF-295): 4.51%; inhibition at 10 µM (ACHN): 16.4%; inhibition at 10 µM (CAKI-1): 51%; inhibition at 10 µM (SF-539): 20.2%; inhibition at 10 µM (OVCAR-4): 21.2%
